Results taken from article PMC12514842, “Ligand binding Pro‐miscuity of acylpeptide hydrolase, structural analysis of a detoxifying serine hydrolase” (Protein Science : A Publication of the Protein Society, 2025).

Columns and labels:
PhAPEH (PhAAP) = target: T1, PhAPEH (PhAAP) (Pyrococcus horikoshii, UniProt O58323); assay: hydrolysis of p-nitroanilide substrate; assay type: biochemical
T1 construct: gene PH0594; produced by the authors; details only in Data S1 chapter II
T1 sequence (O58323 1-622): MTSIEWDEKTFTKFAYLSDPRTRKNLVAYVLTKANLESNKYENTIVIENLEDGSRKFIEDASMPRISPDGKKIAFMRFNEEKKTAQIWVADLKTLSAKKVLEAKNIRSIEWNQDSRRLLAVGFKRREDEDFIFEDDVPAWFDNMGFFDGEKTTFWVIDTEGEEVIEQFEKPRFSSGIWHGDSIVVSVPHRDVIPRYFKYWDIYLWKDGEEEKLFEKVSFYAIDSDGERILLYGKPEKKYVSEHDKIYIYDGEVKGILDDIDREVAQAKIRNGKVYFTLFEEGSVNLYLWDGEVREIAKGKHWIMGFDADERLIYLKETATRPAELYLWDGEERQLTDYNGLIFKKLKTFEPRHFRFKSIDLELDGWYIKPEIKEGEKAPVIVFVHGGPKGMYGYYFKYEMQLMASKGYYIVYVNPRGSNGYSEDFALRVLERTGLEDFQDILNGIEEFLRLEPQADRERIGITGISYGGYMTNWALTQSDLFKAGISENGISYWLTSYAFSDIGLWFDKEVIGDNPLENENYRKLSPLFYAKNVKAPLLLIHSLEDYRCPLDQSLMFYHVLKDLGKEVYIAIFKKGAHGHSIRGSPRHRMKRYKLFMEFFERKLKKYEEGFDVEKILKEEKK

ApAPEH (ApAAP) = target: T2, ApAPEH (ApAAP) (Aeropyrum pernix, UniProt Q9YBQ2); assay: hydrolysis of p-nitroanilide substrate; assay type: biochemical
T2 construct: gene APE_1547.1; produced by the authors; details only in Data S1 chapter II

[1] = target: T3, pAPEH (porcine liver acylpeptide hydrolase, acylaminoacyl-peptidase, AAP) (Sus scrofa, UniProt P19205); assay: cryo-EM structure of complex ([…] A); assay type: binding; conditions: covalent; Ser587 and His707; 10-fold molar excess, pH 7.5, 37 °C, 1 h
T3 construct: gene APEH; native, purified from porcine liver; homotetramer; catalytic Ser587, Asp675, His707
T3 sequence (P19205 1-732): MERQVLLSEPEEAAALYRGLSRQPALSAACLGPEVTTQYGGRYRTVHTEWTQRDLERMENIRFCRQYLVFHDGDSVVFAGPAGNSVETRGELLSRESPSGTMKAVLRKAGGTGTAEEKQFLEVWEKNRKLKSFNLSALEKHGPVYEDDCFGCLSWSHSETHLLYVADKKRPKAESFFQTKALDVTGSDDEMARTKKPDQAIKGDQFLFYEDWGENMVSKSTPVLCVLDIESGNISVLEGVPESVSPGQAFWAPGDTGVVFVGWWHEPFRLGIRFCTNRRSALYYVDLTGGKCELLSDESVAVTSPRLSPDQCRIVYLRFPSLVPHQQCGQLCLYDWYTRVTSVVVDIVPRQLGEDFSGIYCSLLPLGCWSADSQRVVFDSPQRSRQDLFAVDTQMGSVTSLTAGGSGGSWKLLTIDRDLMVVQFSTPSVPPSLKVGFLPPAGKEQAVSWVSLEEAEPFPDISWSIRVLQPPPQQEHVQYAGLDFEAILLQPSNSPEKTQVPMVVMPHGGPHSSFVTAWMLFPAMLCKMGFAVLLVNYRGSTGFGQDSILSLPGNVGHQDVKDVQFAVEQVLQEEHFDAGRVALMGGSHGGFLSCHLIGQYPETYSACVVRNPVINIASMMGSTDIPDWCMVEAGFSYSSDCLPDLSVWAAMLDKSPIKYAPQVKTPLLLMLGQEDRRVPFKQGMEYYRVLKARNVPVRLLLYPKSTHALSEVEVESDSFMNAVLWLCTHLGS

[2] = target: T3, pAPEH (porcine liver acylpeptide hydrolase, acylaminoacyl-peptidase, AAP); assay type: binding
[3] = target: T3, pAPEH (porcine liver acylpeptide hydrolase, acylaminoacyl-peptidase, AAP); assay type: binding; remark: listed apart in the source

T2 sequence (Q9YBQ2 whole entry): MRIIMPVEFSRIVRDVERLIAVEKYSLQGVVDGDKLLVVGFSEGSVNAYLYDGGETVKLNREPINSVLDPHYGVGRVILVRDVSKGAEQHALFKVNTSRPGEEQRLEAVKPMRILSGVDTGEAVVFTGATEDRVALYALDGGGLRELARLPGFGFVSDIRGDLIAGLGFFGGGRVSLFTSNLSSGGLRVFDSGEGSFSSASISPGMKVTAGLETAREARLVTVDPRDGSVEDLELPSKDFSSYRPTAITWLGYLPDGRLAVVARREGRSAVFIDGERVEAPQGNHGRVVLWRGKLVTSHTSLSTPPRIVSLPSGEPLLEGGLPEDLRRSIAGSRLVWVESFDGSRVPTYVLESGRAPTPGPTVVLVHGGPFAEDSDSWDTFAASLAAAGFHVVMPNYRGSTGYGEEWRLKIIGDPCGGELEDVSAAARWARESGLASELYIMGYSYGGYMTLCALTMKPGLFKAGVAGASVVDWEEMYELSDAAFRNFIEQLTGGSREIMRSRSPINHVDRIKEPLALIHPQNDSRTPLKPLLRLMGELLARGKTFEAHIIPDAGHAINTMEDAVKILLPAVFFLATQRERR

CC(=O)N[C@@H](CC(C)C)C(=O)Nc1ccc([N+](=O)[O-])cc1 [Ac-Leu-pNA]
hydrolysis of p-nitroanilide substrate (PhAPEH (PhAAP)): archaeal variants are quite selective toward their specific substrate Ac‐Leu‐pNA
hydrolysis of p-nitroanilide substrate (ApAPEH (ApAAP)): archaeal variants are quite selective toward their specific substrate Ac‐Leu‐pNA

CC(=O)N[C@@H](C)C(=O)CCl [ligand 1, acetyl-alanyl-chloromethyl ketone]
cryo-EM structure of complex (3.19 A) [1]: bound covalently to the active Ser587 and His707 (Figure 2a) of each monomer

COP(=O)(OC)OC=C(Cl)Cl [ligand 2, dichlorvos]
cryo-EM structure of complex (2.65 A) [2]: Dimethoxy‐phosphate (DMP) residue of dichlorvos is bound covalently to the active Ser587

NCCc1ccc(S(=O)(=O)F)cc1 [ligand 3, 4-(2-aminoethyl)benzenesulfonyl fluoride]
cryo-EM structure of complex (2.78 A) [3]: thus the inhibitor directly coordinates to the active Ser
